Measurements from patent US20070197424A1, “Glatiramer acetate for use as an immuno-modulatory agent” (priority 2003, published 2007).
Entries after “also recorded” stand apart in the source; their conditions may differ.

What was measured:
serum cytokines = assay: Serum cytokine levels in colitis-induced mice; format: in vivo, mouse; details: vs colitis-induced untreated group
Method: (§1) Following Ketamine/Xylazine anesthesia, animals were sacrificed, and serum, colons are harvested at day 12. Blood samples are obtained and frozen at −20° C. until assayed for cytokine levels (IL2, IL4, IFNg, IL10 and TGFb). Splenocyte subpopulations are analyzed by FACS for CD4 and CD8, NK markers, and killer inhibitory and activation receptors. Colons are assessed for inflammatory severity.

splenocytes [1] = assay: FACS analysis of splenocytes in CCl4-fibrosis induced mice; format: in vivo, mouse; details: for spleen CD4:CD8 ratio: vs CCl4-induced fibrosis untreated group, FIG. 7; for spleen total number of NK cells: vs untreated fibrotic and naive groups, FIG. 8
Method: (§2) Hepatic fibrosis was induced by IP CCl4 administration for 6 weeks in 8 week-old male wild-type C57Bl/6 mice. Within the last 2 weeks animals were also treated with either Copaxone 200 microgram/day I.P (Group A), Linomycin given by drinking water 1 mg/ml (Group B) or normal saline (group C), and were compared to naïve mice (Group D). Eight animals were included in each group. Hepatic fibrosis was evaluated by Ishak Knodell score [Knodell, R. G. et al., Hepatology 1981; 1(5):431-5], hydroxyproline and by analyzing 36 Sirius Red stained histological liver sections per animal with Bioquant® morphometry system. Splenocytes were isolated for FACS analysis from all animal groups. The correlation between hepatic fibrosis and CD4, CD8, NK cells, iKIR and aKIR expression on splenocytes was assessed.
(§3) Splenocyte isolation: Spleens were harvested at the time of sacrifice and fractionated through a 70-μm nylon cell strainer. After RBC lysis, splenocytes were washed, suspended in RPMI 1640 medium and stored at 4° C. until FACS analysis.
(§4) Fluorescent-activated cell sorting analysis (FACS): splenocytes are analysed by direct immunofluorescence reactivity with a series of antibodies (Abs) using standard techniques on a Coulter flow cytometer (BECTON DICKINSON, USA). Briefly, 3×10^5 spleen cells are incubated for 30 minutes at 4° C. with Abs conjugated to fluorescein isothiocyanate (FITC), phycoerythrin (PE) or allophycocyanin (APC), washed three times, and resuspended in fixative solution with 2% paraformaldehyde for analysis. Antibodies used for staining splenocytes are monoclonal anti-mouse CD4, CD8 conjugated by PE and FITC respectively (BD Biosciences). For staining natural killer (NK) cells APC-conjugated rat anti-mouse CD49b/Pan-NK cells monoclonal antibody which identifies the majority of NK cells is used. For killer inhibitory receptors (iKIR) monoclonal mouse anti-mouse Ly-49C and Ly-49I conjugated by PE are used. For the killer activating receptor (aKIR) FITC-conjugated rat anti-mouse LY-49D monoclonal antibody were used. To defined the role of T regulatory cells we used the anti CD25 monoclonal antibodies. To identify lymphocytes staining with peridinin chlorophyll-α protein (Per-CP)-conjugated rat anti-mouse CD45 (BD Biosciences) was used. Lymphocyte subsets are presented as percentage of the CD45+ cells.

intrahepatic lymphocytes = assay: FACS analysis of intrahepatic lymphocytes in CCl4-fibrosis induced mice; format: in vivo, mouse
[2] = tested on: graft-specific T cell lines; details: in vitro with stimulating allogeneic cells; cited from earlier work
[3] = tested on: relapsing-remitting multiple sclerosis; details: cited from earlier work
colitis-induced mice = assay: TNBS-colitis in mice: macroscopic and microscopic colitis score; format: in vivo, mouse; details: treated vs control colitis-induced mice
Method: Each group includes 10 male animals.
as §1
Colitis induction as inflammatory bowel disease animal model: TNBS-colitis was induced by rectal instillation of TNBS, 1 mg/mouse, dissolved in 100 μl of 50% ethanol as described [Trop S, Samsonov D, Gotsman I, Alper R, Diment J and Ilan Y (1999) Hepatology 29: 746-755].
(§5) Liver and colon histology: The posterior one-third of the liver, the rectosigmoid colon were fixed in 10% formalin for 24 hours and then paraffin-embedded in an automated tissue processor. […] sections were cut from each animal specimen. Hematoxylin and eosin (H&E) staining was performed for each animal section.

splenocytes [4] = assay: FACS analysis of spleen cell populations in colitis-induced mice; format: in vivo, mouse
Method: as §1, §3, §4

[5] = tested on: CCl4-fibrosis induced mice; assay: CCl4-induced hepatic fibrosis in mice: liver injury and fibrosis assessment; format: in vivo, mouse; details: for liver injury (Ishak injury score): CCl4 fibrosis-induced mice, treated vs untreated; for hepatic fibrosis (Ishak liver fibrosis scoring, Bioquant analysis): compared to the CCl4 fibrosis-induced untreated group, Copaxone 200 microgram/day I.P. or Linomycin 1 mg/ml drinking water, last 2 weeks of 6 weeks CCl4
Method: as §2
Hepatic fibrosis animal model: Hepatic fibrosis was induced by IP CCl4 (10% as diluted with corn oil) administration 5 microliter/g body weight; for 4-6 weeks in 8 week-old male mice.
as §5
Liver sections (15 μm) were stained in 0.1% Sirius Red F3B in saturated picric acid (both from Sigma). Additionally, alpha smooth muscle actin immunohistochemistry was performed using the DAKO kit (CAT# U7033 EPOS, Monoclonal) according to the manufacturer's instructions.
Hepatic Fibrosis quantitation: Relative fibrosis area (expressed as a % of total liver area) was assessed by analyzing 36 Sirius red-stained liver sections per animal. Each field was acquired at 10× magnification and then analyzed using a computerized Bioquant® morphometry system. To evaluate the relative fibrosis area, the measured collagen area was divided by the net field area and then multiplied by 100. Subtraction of vascular lumenal area from the total field area yielded the final calculation of the net fibrosis area.
Alpha smooth muscle actin immunoblot: Immunoblot analysis of Alpha-SMA in liver extracts is performed as previously described [de Waal Malefyt, R., et al., J. Exp. Med. 1991; 174:915-924] with modifications. Whole-liver protein extracts were prepared in liver homogenization buffer (50 mmol/L Tris-HCl [pH 7.6], 0.25% Triton-X 100, 0.15 M NaCl, 10 mM CaCl2 and complete mini EDTA-free protease inhibitor cocktail (Roche Diagnostics, Mannheim, Germany). Then proteins (30 μg per lane) were resolved on a 10% SDS-polyacrylamide gel under reducing conditions. For immunoblotting, proteins were transferred to a Protran membrane and incubated overnight at 4° C. in a blocking buffer containing 5% skim milk. Anti-SMA mouse monoclonal antibody (DAKO, cat# M0851) and peroxidase-conjugated goat anti-mouse IgG (P.A.R.I.S., Compiègne, France) and enhanced chemiluminescence were used.

skin and thyroid grafts = details: cited from earlier work
dendritic cells = details: through modulation of dendritic cells; cited from earlier work

Substance: glatiramer acetate [Copaxone]
- serum IL-10 level (serum cytokines; p<0.002, FIG. 18): significantly reduced
- serum IL-4 level (serum cytokines; p<0.004, FIG. 18): significantly reduced
- serum IFN-γ level (serum cytokines; p<0.006, FIG. 18): significantly reduced
- spleen CD4 cells (splenocytes [1]; between fibrotic groups A, B and C, FIG. 6): no significant changes
- spleen CD8 cells (splenocytes [1]; compared to group C (p<0.05) or D (p<0.005), FIG. 6): significantly decreased
- spleen NK aKIR:NK iKIR ratio (splenocytes [1]; compared to the naive group (group D), p<0.0001, FIG. 9): significant increase
- spleen NK aKIR:NK iKIR ratio (splenocytes [1]; compared to the untreated fibrotic group (group C), p<0.05, FIG. 9): significantly lower
- spleen CD4:CD8 ratio (splenocytes [1]): increased; also recorded: significantly elevated
- spleen CD4:CD8 ratio (splenocytes [1]; listed as A): significantly elevated
- spleen total number of NK cells (splenocytes [1]): elevated
- spleen total number of NK cells (splenocytes [1]; listed as A): increased number
- intrahepatic CD4 cells (intrahepatic lymphocytes; between fibrotic groups A and C, FIG. 10): no significant changes
- intrahepatic NK cells number (intrahepatic lymphocytes; compared to fibrosis group C, p<0.0001, FIG. 12): significantly increased
- intrahepatic CD8 cells (intrahepatic lymphocytes; compared to group C, p<0.001, FIG. 10): significantly decreased
- intrahepatic CD4:CD8 ratio (intrahepatic lymphocytes; compared to group C, p<0.002, FIG. 11): significantly elevated
- interleukin-2 and interferon-gamma secretion of graft-specific T cell lines [2]: inhibited
- proliferation of graft-specific T cell lines [2]: inhibited
- disease activity and burden of disease (MRI measures) ([3]; European/Canadian study): significantly decrease
- tolerability ([3]; human, in vivo): generally well tolerated
- overall disability status ([3]; patients with RRMS): significantly improved
- efficacy by relapse rate, proportion of relapse-free patients, number of gadolinium-enhancing lesions ([3]; subcutaneous 20 mg/day, patients with RRMS): significantly effective
- macroscopic colitis score (tissue injury) (colitis-induced mice; FIG. 13a): prominent reduction
- microscopic colitis score (tissue injury) (colitis-induced mice; FIG. 13b, p<0.03): prominent reduction
- CD4 IFN-γ secreting cells (splenocytes [4]; colitis induced-Copaxone treated group, p<0.02, FIG. 16): increase
- spleen CD4 cell number (splenocytes [4]; colitis induced-Copaxone treated group, p<0.03, FIG. 15): significant increase
- spleen CD8 cell populations (splenocytes [4]; colitis-induced mice, FIG. 15): unaffected
- antigen presenting cells (APC), spleen (splenocytes [4]; colitis-induced mice, FIG. 17): seemed to be reduced
- anti-fibrotic effect in the animal model ([5]; CCl4 fibrosis mouse model, overall conclusion): significant anti-fibrotic effect
- liver injury (Ishak injury score) ([5]; listed as Glatiramer acetate): reduced liver injury
- liver injury (Ishak injury score) ([5]; listed as copaxon): no significant difference
- liver injury (Ishak injury score) ([5]; listed as glatiramer acetate): significantly lower
- fibrosis severity, % of collagen in the analyzed area ([5]; after CCl4 fibrosis induction, p<0.0001, FIG. 4): significantly reduced
- hepatic fibrosis (Ishak liver fibrosis scoring, Bioquant analysis) [5]: significant reduction of fibrosis
- hepatic fibrosis (Ishak liver fibrosis scoring, Bioquant analysis) ([5]; listed as glatiramer acetate): significantly lower
- alpha smooth muscle actin amounts (Western blot, liver) ([5]; vs CCl4 animal group, FIG. 5): significantly reduced
- skin graft survival (skin and thyroid grafts; skin grafting assay): prolonged
- functional deterioration of thyroid grafts (skin and thyroid grafts; thyroid grafting assay): inhibited
- IL-10 production (dendritic cells): increase
- Th2 CD4 cell development (dendritic cells): promote
